Results on eight compounds are retold here after patent publication US5118704A, “Substituted 2-aminotetralins useful as dopaminergics” (Whitby Research, Inc., priority 1991, dated 1992).

Assay [1] has as its target T1, α2-adrenergic receptors (Rattus norvegicus, UniProt P22909).
T1 construct: rat cerebral cortex membranes were employed as a source of receptors; from tissue; host or cells: cerebral cortex membranes of male Sprague Dawley rats
T1 sequence (P22909 1-465): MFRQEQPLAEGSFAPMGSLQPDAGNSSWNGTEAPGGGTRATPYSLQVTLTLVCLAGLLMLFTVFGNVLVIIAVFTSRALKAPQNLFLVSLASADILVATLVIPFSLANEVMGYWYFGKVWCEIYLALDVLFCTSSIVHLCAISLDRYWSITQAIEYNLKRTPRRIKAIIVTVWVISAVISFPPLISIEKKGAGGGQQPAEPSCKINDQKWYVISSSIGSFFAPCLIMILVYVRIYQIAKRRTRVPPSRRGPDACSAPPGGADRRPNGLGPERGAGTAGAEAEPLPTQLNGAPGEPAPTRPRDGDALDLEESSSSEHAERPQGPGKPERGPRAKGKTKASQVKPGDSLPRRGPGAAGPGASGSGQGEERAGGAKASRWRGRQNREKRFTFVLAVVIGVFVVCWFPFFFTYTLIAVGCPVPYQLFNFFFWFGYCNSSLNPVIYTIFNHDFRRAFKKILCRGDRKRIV
The experiment in a line: Radioligand binding to α2-adrenergic receptors ([3H]-Para aminoclonidine, rat cerebral cortex membranes). Here is the method:
(§1) To test the selectivity and specificity of the present compounds for binding to dopamine receptors, tests were conducted using the following standard procedures.
To test binding of the compounds to α2 -adrenergic receptors, rat cerebral cortex membranes were employed as a source of receptors. Male Sprague Dawley rats were killed by decapitation and the brains removed. The cerebral cortices were homogenized in 50 mM Tris; 2 mM MgCl2 (pH 7.4), and centrifuged at 40,000 × g for 10 minutes. The pellet was washed once, resuspended in Tris/MgCl2 and incubated with 8 units/ml adenosine deaminase at 37° C. for 30 minutes. The homogenate was centrifuged, washed once, resuspended to a protein concentration of 5-10 mg/ml and frozen at -70° C. until use.
(§2) The following tritiated drugs were used as radioligands for each of the receptors tested: [^3 H]-Spiperone 21-24 Ci/mmol for D2 receptors, [^3 H]-SCH23390 75-85 Ci/mmol for D1 receptors, and [^3 H]-Para aminoclonidine 48-52 Ci/mmol for α2 -adrenergic receptors. The radio-ligands were incubated with various concentrations of competing drug and the appropriate membrane source for periods of time as follows: 75 minutes at room temperature for D2 receptors, 30 minutes at 37° C. for D1 receptors, or 30 minutes at room temperature for α2 receptors. Specific binding was defined using 1μM butaclamol (D2), 1 μM SCH23390 (D1), or 1 μM yohimbine (α2). In addition the D2 assays contained 30 nM ketaserin in order to block the binding of ^3 H-spiperone to 5HT2 receptors.
(§3) The assays were terminated by filtration using a 24-port Brandell cell harvester over filters that had been previously soaked in 0.1% polyethyleneimine, and the filters were washed three times by filtration of cold buffer. The filters were then placed in 5 ml scintillation vials to which 4 ml of Beckman Ready-Protein was then added, and each vial was counted for 2 minutes in a Beckman 3801 scintillation counter calibrated for conversion of cpm to dpm. Binding data were analyzed using the Ligand program of Munson and Rodbard (1980). The results are presented as Ki values if the data were best fitted to a one-site model, or as KH and KL values if a two-site model produced the better fit.

Assay [2] addresses T2, dopamine D1 receptors (Bos taurus, UniProt Q95136).
T2 construct: membranes derived from bovine caudate nuclei assay were employed; from tissue; host or cells: bovine caudate nuclei membranes (brains from a local slaughterhouse)
The experiment in a line: Radioligand binding to dopamine D1 receptors ([3H]-SCH23390, bovine caudate nuclei membranes). Here is the method:
as §1
(§4) To test binding to dopamine receptors, membranes derived from bovine caudate nuclei assay were employed. Bovine brains were obtained fresh from a local slaughterhouse. The caudate nuclei were dissected out and homogenized in Buffer A (50 mM Tris; 1 mM Na2 -EDTA; 5 mM KCl; 1 mM MgCl2; 2 mM CaCl2; pH 7.4) using a Brinkman Polytron. The homogenate was centrifuged at 40,000 × g for 20 minutes and washed once. The pellett was resuspended in Buffer A, incubated at 37° C. for 15 minutes, then centrifuged. The pellet was washed once more, resuspended to a protein concentration of 5-10 mg/ml in Buffer A and frozen at -70° C. until used.
as §2, §3

Assay [3] concerns the target T3, dopamine D2 receptors (Bos taurus, UniProt P20288).
T3 construct: membranes derived from bovine caudate nuclei assay were employed; from tissue; host or cells: bovine caudate nuclei membranes (brains from a local slaughterhouse)
Kind of assay: Radioligand binding to dopamine D2 receptors ([3H]-Spiperone, bovine caudate nuclei membranes). The conditions noted are these: for affinity and selectivity for dopamine D2 receptors (in words): result in words. The protocol:
as §1, §4, §2, §3

Assay [4] concerns dopamine D2. The conditions noted are these: result in words; cited from earlier work.
The subject of assay [5] is dopamine receptor. The conditions noted are these: prior art, result in words; cited from earlier work.
Setting [6] is: [3H]-Para aminoclonidine, rat cerebral cortex membranes, 30 minutes at room temperature, read-out: RECEPTOR AFFINITIES Ki, α2.
[7] abbreviates: [3H]-SCH23390, bovine caudate membranes, 30 minutes at 37° C., read-out: RECEPTOR AFFINITIES Ki, D1 (KL).
[8] abbreviates: [3H]-Spiperone, bovine caudate membranes, 75 minutes at room temperature, 30 nM ketaserin, read-out: RECEPTOR AFFINITIES Ki, D2 (KL).

Each structure is given as a SMILES string. Like-named read-outs stand apart in the source and are kept apart here.

Broadly, the Ki is a measure of affinity in units of concentration, obtained from inhibition or displacement.

T2 sequence (Q95136 whole entry): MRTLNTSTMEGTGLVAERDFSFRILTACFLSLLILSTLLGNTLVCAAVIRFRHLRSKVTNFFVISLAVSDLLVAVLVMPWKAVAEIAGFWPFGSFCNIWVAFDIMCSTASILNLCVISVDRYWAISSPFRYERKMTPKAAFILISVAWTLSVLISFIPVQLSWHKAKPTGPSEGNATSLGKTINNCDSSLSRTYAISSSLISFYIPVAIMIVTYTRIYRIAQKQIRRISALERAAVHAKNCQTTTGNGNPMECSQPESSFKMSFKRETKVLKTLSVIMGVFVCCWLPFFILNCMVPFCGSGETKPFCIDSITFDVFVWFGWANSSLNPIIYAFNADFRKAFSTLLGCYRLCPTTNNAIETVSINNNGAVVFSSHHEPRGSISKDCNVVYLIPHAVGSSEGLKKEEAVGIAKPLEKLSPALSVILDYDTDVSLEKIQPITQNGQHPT
T3 sequence (P20288 whole entry): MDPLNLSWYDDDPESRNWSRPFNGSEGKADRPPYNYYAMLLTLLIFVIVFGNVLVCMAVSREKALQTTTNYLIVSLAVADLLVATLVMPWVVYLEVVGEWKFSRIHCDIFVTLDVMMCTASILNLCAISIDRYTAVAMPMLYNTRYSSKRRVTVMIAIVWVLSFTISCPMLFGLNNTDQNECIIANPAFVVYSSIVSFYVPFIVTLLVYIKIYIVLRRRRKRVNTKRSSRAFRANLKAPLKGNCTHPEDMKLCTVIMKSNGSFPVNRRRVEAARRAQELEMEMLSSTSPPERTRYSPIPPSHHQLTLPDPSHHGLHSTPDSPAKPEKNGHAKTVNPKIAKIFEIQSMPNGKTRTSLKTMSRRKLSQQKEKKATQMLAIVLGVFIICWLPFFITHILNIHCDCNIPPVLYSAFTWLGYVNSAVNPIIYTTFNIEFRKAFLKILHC

On to `CCCN(CCc1cccs1)C1CCc2c(O)cccc2C1` (racemic) [Example N-0437, reference compound], for which the Ki in assay [1] came to 190 nM; in assay [2], 1000 nM; in assay [3], 110 nM. In addition, in assay [4], the “dopamine D2 agonist potency (in words)” value is recorded as “potent dopamine D2 agonist”.
In the case of `CCCN(CCCn1c(C)ccc1C)C1CCc2c(O)cccc2C1` (stereo not shown) [Example 2], the Ki in assay [1] came out at 1600 nM; in assay [2] it was 2700 nM; in assay [3], 26 nM. For the same compound, the “affinity and selectivity for dopamine D2 receptors (in words)” value in assay [3] (listed as 2,5-dimethyl-N-propyl-N-(1,2,3,4-tetrahydro-5-hydroxy-2-naphthalenyl)-1H-pyrrole) is “high affinity and selectivity for binding to D2 dopamine receptors”; in assay [3] (listed as 6-[[3-(2,5-dimethyl-1H-pyrrol-1-yl)propyl]propylamino-5,6,7,8-tetrahydro-1-napht), “high affinity and selectivity for binding to dopamine D2 receptors”.
Regarding `CCCN(CCn1c(C)ccc1C)C1CCc2c(O)cccc2C1` (stereo not shown) [Example 4, 6-[[2-(2,5-dimethyl-1H-pyrrol-1-yl)ethyl]propylamino]-5,6,7,8-tetrahydro-1-naphthalenol], the Ki was determined as 1400 nM in assay [1] (setting [6]), 10000 nM in assay [2] (setting [7]) and 100 nM in assay [3] (setting [8]).
The like results for `CCCN(CCCN1C(=O)c2ccccc2C1=O)C1CCc2c(O)cccc2C1` (stereo not shown) [Example 10, 2-[3-[propyl(1,2,3,4-tetrahydro-5-hydroxy-2-naphthalenyl)amino]propyl]-1H-isoindole-1,3(2H)-dione] were, in that order, 142 nM, 3230 nM and 1260 nM.
For `CCCN(CCCN1Cc2ccccc2C1)C1CCc2c(O)cccc2C1` (stereo not shown) [Example 11, 6-[[3-(1,3-dihydro-2H-isoindol-2-yl)propyl]propylamino]-5,6,7,8-tetrahydro-1-napththalenol], in that order: 1130 nM, 3000 nM and 720 nM.
For `CCCN(CCN1C(=O)c2ccccc2C1=O)C1CCc2c(O)cccc2C1` (stereo not shown) [Example 13, 2-[2-[propyl(1,2,3,4-tetrahydro-5-hydroxy-2-naphthalenyl)amino]ethyl]-1H-isoindole-1,3(2H)-dione], in that order: 10000 nM, 14000 nM and 1260 nM.
Consider `CCCN(CCN1Cc2ccccc2C1)C1CCc2c(O)cccc2C1` (stereo not shown) [Example 14, 6[[2-(1,3-dihydro-2H-isoindol-2-yl)ethyl]propylamino]-5,6,7,8-tetrahydro-1-naphthalenol], for which the Ki in assay [1] (setting [6]) is 2630 nM; in assay [2] (setting [7]) it was 4860 nM; in assay [3] (setting [8]), 52 nM.
On to `CN1CCc2cccc3c2[C@H]1Cc1ccc(O)c(O)c1-3` [apomorphine], for which the “dopaminergic activity (in words)” value in assay [5] is “high activity”.
